Values of other authors as cited in patent US8686153B2, “Lenalidomide salts” (Synthon B.V., priority 2009, dated 2014).

SMILES: Nc1cccc2c1CN(C1CCC(=O)NC1=O)C2=O (racemic) [Lenalidomide, 3-(4-amino-1-oxo-3H-isoindol-2-yl)piperidine-2,6-dione]
- solubility at pH 4.6, 6.8 and 7.4: 0.4-0.5 mg/ml
